The values that follow come from patent US7662853B2, “Monoacetyldiacylglycerol derivative for the treatment of sepsis” (priority 2004, dated 2010).

Assay [1] has as its system dendritic cells. In words: Expression of adhesion molecules of dendritic cells (RT-PCR). To be noted: 1 μg/ml, compared to control. It counts as cell-based, Balb/c AnN mice. On the procedure: Bone marrow cells were obtained from the femurs and tibias of Balb/c AnN mice (Park, J. et al. (2003) J. Korean Med. Sci., 18: 372-380). The cells were washed 3 times in RPMI, and then mononuclear cells were obtained. These mononuclear cells were allowed to adhere to tissue culture flask 3 hours in RPMI and 10% FBS. After incubation, the adherent cells (monocytes) were removed and non-adherent cells were placed in 100 mm tissue culture dishes, in a concentration of 1×10^5 cells/ml in RPMI plus 10% FBS supplemented with 20 ng/ml murine rGM-CSF (R & D systems, Minneapolis, Minn., USA), 10 ng/ml, murine IL-4 (R&D systems), and 2.5 ng/ml murine TNF-α (R & D systems). Culture dishes were fed every 3 days. Murine TNF-α (R & D systems) was added at the 6th day of the culture. After that, murine TNF-α (R & D systems) was added every 3 days until on the 11th day. Mature dendritic cells were harvested for RT-PCR of adhesion molecule studies. […]
Total RNA separated from dendritic cells and MS-5, low density cells cultured with oligo(dt)-primer, was reverse-transcribed, and PCR was performed at 94° C. for 30 seconds, 65° C. for 30 seconds and 72° C. for 50 seconds. […] For the quantification, PCR with GAPDH was performed to confirm the corresponding cDNA.

For assay [2], the system named is T-cells. In words: T-cell proliferation (3H-thymidine incorporation, SI). The class given is cell-based, C57BL/6 mice. To be noted: 7th day. An excerpt:
Splenocytes were collected from C57BL/6 mice (provided from Asan Institute for Life Sciences Animal Lab., Seoul, Korea) spleens. Then, single cell suspensions were obtained by repeated aspiration and flushing. Red blood cells were removed using ammonium chloride and then passed through nylon wool to remove debris and clumps. T-cells were purified using magnetic bead (MACS bead, Miltenyi Biotec, bergich gladbach, Germany) containing anti-goat IgG MACS bead, Miltenyi Biotec, bergich gladbach, Germany) or anti-mouse CD4 (MACS bead, Miltenyi Biotec, bergich gladbach, Germany) or anti-mouse CD8 antibody (MACS bead, Miltenyi Biotec, bergich gladbach, Germany) (Turner and Dockrell (1996) Immunology, 87: 339-342).
T cell suspensions were suspended in Isocove's modified Dulbecco's medium (IMDM, Gibco, Grand Island, N.Y.) supplemented with 10% fetal bovine serum (referred as ‘FBS’ hereinafter) (Gibco, Grand Island, N.Y.). […] On the 6th day, cells were incubated with 1 μCi ^3H-thymidine/well for 24 hours. On the 7th day, the cells were harvested and the […] (referred as ‘SI’ hereinafter) was calculated by the following Mathematical Formula 1. SI=^3H-thymidine absorbed by wells of experimental group (CPM in sample)/^3H-thymidine absorbed by wells of control group (CPM in control) [Mathematical Formula 1]
A general note: Dividing cells build labelled thymidine or BrdU into new DNA.

As for `CCCCC/C=C\C/C=C\CCCCCCCC(=O)OC(COC(C)=O)COC(=O)CCCCCCCCCCCCCCC` (stereo not drawn) [Compound 3], in assay [1], the “expressions of adhesion molecules Icam-2, VLA-5, LFA-1” value is “significantly increased”. In addition, the figures for the SI in assay [2] (0.01 μg/ml) and in assay [2] (0.1 μg/ml) were 1.83 ± 0.32 and 1.96 ± 0.18, respectively.
